In patent publication US20260207618A1, “PYRIMIDINE CARBOXAMIDE COMPOUNDS” (Acrivon Therapeutics, Inc., priority 2022, published 2026) one finds EC50 and IC50 data, which are given here for 21 molecules.

Bounds are passed on as bounds.

Assay [1] has as its system Cdk1 phosphorylated on tyrosine 15. Nature of the assay: High-content imaging of pCdk1 Y15 by immunofluorescence in ACHN cells. It counts as cell-based. Conditions: Homo sapiens, high-content imaging (IF), 4 h, 7 to 5000 nM, read-out: CDK1 Tyr15 Phosphorylation EC50 (IC50). On the procedure: ACHN renal cell carcinoma cell line (ATCC) was cultured in Minimum Essential Medium Eagle supplemented with 10% fetal calf serum (Sigma), 1% Penicillin-Streptomycin and 10 mM HEPES buffer (HyClone). Cell cultures were kept in a humidified incubator at 37° C. and 5% CO2. Cells were routinely tested for Mycoplasma contamination.
High-content imaging of ACHN renal cell carcinoma cells was used for quantification of CDK1 phosphorylated on tyrosine 15 by immunofluorescence (“IF”). 20 000 cells per well were seeded in tissue culture treated 96 well plates and treated with compounds at concentrations ranging from 7 to 5000 nM for 4 h. Cells were fixated for 15 minutes in 4% paraformaldehyde solution, washed in PBS and permeabilized using 0.2% Triton X-100. Blocking was performed for 1 h at RT using Blocker FL Fluorescent Blocking Buffer (Thermo Scientific), thereafter cells were incubated with primary antibody (rabbit anti-pCDK1 Y^15, #4539, Cell Signaling Technology) at 4° C. ON. Alexa Fluor Plus 647 labelled goat anti-rabbit (A32733. Thermo Scientific) was used as secondary antibody. After washing in PBS, nuclei were stained with DAPI solution for 10 min at RT, protected from light. Cells were imaged using an ImageXpress Pico automated imaging system and CellReporter Xpress software (Molecular Devices). The percentage cells with nuclear positivity for pCdk1 Y^15 compared to DMSO control was determined for each well and drug dose response curves and EC50 values were calculated and visualized using GraphPad Prism.

Assay [2] has as its target T1, recombinant human Wee1A kinase (Homo sapiens, UniProt P30291).
T1 construct: full length Wee1A kinase was expressed by baculovirus in insect cells; purchased Invitrogen PV3817; host or cells: insect cells (baculovirus)
Nature of the assay: LanthaScreen Europium (Eu) Kinase Binding Assay, Wee1A kinase (TR-FRET tracer displacement). The settings on record: 30 nM tracer 178, 5 nM Wee1A kinase, 60 minutes at room temperature. The text has this: We used a LanthaScreen Europium (Eu) Kinase Binding Assay to determine the binding of provided compounds to Wee1A kinase. The assay utilizes an Alexa Fluor 647-labeled ATP competitive kinase tracer that binds to the ATP binding site of a GST-tagged Wee1A kinase, while a europium (Eu) labeled antibody binds to the GST tag. The proximity of fluorescently labeled kinase tracer and europium (Eu) donor fluorophore antibody leads to fluorescence resonance energy transfer (FRET) to the fluorescence label (acceptor) upon excitation of the Eu (donor). Displacement of tracer from the ATP-binding site by a test compound disturbs the proximity between both labels thus lowering the FRET.
This time resolved-FRET binding assay was performed in white 384-well low volume plates (Greiner, cat #784075), at room temperature in kinase buffer A (KBA; Invitrogen cat #PV3189), consisting of 50 mM HEPES-NaOH (pH 7.5), 0.01% Brij-35, 10 mM MgCl2, and 1 mM EGTA. 5 μl of compound (diluted in reaction buffer, to 1% DMSO) were added to various wells in the plate, followed by 5 μl each of recombinant human Wee1A kinase (full length Wee1A kinase was expressed by baculovirus in insect cells using a N-terminal GST tag (MW: 99.1 kDa) (Invitrogen cat #PV3817) and LanthaScreen Eu-anti-GST antibody (Invitrogen, cat #PV5594). After this, 5 μl of kinase tracer 178 (Invitrogen, cat #PV5593) was added to the plate and the plate was incubated for 60 minutes at room temperature. The final assay conditions in each well were: 30 nM tracer 178, 5 nM Wee1A kinase and 2 nM Eu-labeled antibody in total assay volume of 15 μl. An Envision 2104 (Perkin-Elmer) Plate Reader with the following time-resolve fluorescence setting was used for performing LanthaScreen kinase binding assay. • Excitation 320 nm (30 nm bandpass) • Kinase Tracer Emission 665 nm (10 nm bandpass) • LanthaScreen Eu-anti-Tag Antibody Emission 615 nm (10 nm bandpass) • Dichroic Mirror Instrument dependent • Delay Time 100 μs • Integration Time 200 μs
To calculate the emission ratio, the acceptor/tracer emission ([…]) was divided by the antibody/donor emission ([…]) and the average of duplicate measurement was used for calculations. Data plotting, analysis of binding, and curve fitting was done using Excel add-in XLfit version 5.5.0.5 (IDBS, Guildford, United Kingdom).
(In general: TR-FRET usually uses a lanthanide donor and a delayed reading to cut background.)

T1 sequence (P30291 whole entry): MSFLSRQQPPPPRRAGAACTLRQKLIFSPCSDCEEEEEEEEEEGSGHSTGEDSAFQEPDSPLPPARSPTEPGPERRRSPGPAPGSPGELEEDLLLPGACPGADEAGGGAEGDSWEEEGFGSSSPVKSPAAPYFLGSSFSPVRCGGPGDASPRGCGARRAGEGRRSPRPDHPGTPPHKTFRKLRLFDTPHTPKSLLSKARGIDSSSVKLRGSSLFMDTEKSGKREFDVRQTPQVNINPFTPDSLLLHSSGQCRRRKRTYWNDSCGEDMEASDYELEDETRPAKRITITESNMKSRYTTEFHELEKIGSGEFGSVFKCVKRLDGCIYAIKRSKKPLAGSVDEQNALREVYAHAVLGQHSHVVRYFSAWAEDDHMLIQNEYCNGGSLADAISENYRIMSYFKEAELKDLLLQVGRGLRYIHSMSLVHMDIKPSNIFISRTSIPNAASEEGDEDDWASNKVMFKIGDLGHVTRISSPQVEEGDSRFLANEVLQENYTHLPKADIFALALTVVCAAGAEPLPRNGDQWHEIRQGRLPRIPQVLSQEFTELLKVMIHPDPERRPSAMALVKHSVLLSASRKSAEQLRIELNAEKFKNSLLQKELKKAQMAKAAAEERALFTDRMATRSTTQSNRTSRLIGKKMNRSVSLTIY

Consider `COc1nc(Nc2ccc(C3CCN(C)CC3)c(Cl)c2)ncc1C(=O)Nc1c(Cl)cccc1Br` [Compound 215, N-(2-bromo-6-chlorophenyl)-2-[3-chloro-4-(1-methyl-4-piperidyl)phenylamino]-4-methoxy-5-pyrimidinecarboxamide], for which, in assay [1], the EC50 is 100 to 500 nM. Moreover, the IC50 in assay [2] is at most 10 nM.

Consider `COc1nc(Nc2ccc(O[C@@H]3CCN(C)C3)c(C)c2)ncc1C(=O)Nc1c(Cl)cccc1Cl` [Compound 146, (R)—N-(2,6-dichlorophenyl)-4-methoxy-2-((3-methyl-4-((1-methylpyrrolidin-3-yl)oxy)phenyl)amino)pyrimidine-5-carboxamide], for which the EC50 in assay [1] was at most 100 nM. For the same molecule, in assay [2], the IC50 is at most 10 nM.

Regarding `COc1nc(Nc2ccc(N3CCCNCC3)cc2)ncc1C(=O)Nc1c(Cl)cccc1Br` [Compound 207, 2-((4-(1,4-diazepan-1-yl)phenyl)amino)-N-(2-bromo-6-chlorophenyl)-4-methoxypyrimidine-5-carboxamide], the EC50 in assay [1] lay in the range of 100 to 500 nM. In addition, the IC50 in assay [2] is at most 10 nM.

For `COc1nc(Nc2ccc(OC3CCNCC3)c(C)c2)ncc1C(=O)Nc1c(Cl)cccc1Br` [Compound 219], the EC50 in assay [1] was in the range of 100 to 500 nM. Also, in assay [2], the IC50 was at most 10 nM.

With `COc1nc(Nc2ccc(C3CCN(C)CC3)c(C)c2)ncc1C(=O)Nc1c(C)ccc(O)c1C` [Compound 142, N-(3-hydroxy-2,6-dimethylphenyl)-4-methoxy-2-((3-methyl-4-(1-methylpiperidin-4-yl)phenyl)amino)pyrimidine-5-carboxamide], the EC50 in assay [1] was at most 100 nM. Further, the IC50 in assay [2] is at most 10 nM.

Take `COc1nc(Nc2ccc(N3CCC4(CCN(C)CC4)CC3)cc2)ncc1C(=O)Nc1c(Cl)cccc1Br` [Compound 209, N-(2-bromo-6-chlorophenyl)-4-methoxy-2-{p-(9-methyl-3,9-diaza-3-spiro[5.5]undecyl)phenylamino}-5-pyrimidinecarboxamide]: the EC50 in assay [1] is 100 to 500 nM. Also, the IC50 in assay [2] was at most 10 nM.

Regarding `COc1nc(Nc2ccc(C3CCN(C)CC3)c(C)c2)ncc1C(=O)Nc1c(F)ccc(F)c1Cl` [Compound 128, N-(2-chloro-3,6-difluorophenyl)-4-methoxy-2-((3-methyl-4-(1-methylpiperidin-4-yl)phenyl)amino)pyrimidine-5-carboxamide], the EC50 in assay [1] lay within 100 to 500 nM. For the same molecule, the IC50 in assay [2] is at most 10 nM.

With `COc1nc(Nc2ccc(OCCCN3CCOCC3)c(C)c2)ncc1C(=O)Nc1c(Cl)cccc1Cl` [Compound 148, N-(2,6-dichlorophenyl)-4-methoxy-2-((3-methyl-4-(3-morpholinopropoxy)phenyl)amino)pyrimidine-5-carboxamide], the EC50 in assay [1] was over 1000 nM. For the same molecule, the IC50 in assay [2] is at most 10 nM.

Consider `COc1nc(Nc2ccc([C@H]3CCCN(C)C3)c(C)c2)ncc1C(=O)Nc1c(Cl)cccc1Br` [Compound 196, (R)—N-(2-bromo-6-chlorophenyl)-4-methoxy-2-((3-methyl-4-(1-methylpiperidin-3-yl)phenyl)amino)pyrimidine-5-carboxamide], for which the EC50 in assay [1] is 100 to 500 nM. Further, in assay [2], the IC50 was at most 10 nM.

As for `COc1nc(Nc2ccc(OC3CCN(C)CC3)c(C)c2)ncc1C(=O)Nc1c(Cl)cccc1Br` [Compound 220, N-(2-bromo-6-chlorophenyl)-4-methoxy-2-((3-methyl-4-((1-methylpiperidin-4-yl)oxy)phenyl)amino)pyrimidine-5-carboxamide], the EC50 in assay [1] is 100 to 500 nM. The IC50 in assay [2] is at most 10 nM.

Consider `COc1nc(Nc2ccc(O[C@@H]3CCN(C)C3)c(C)c2)ncc1C(=O)Nc1c(Cl)cccc1Br` [Compound 211], for which the EC50 in assay [1] lay in the range of 100 to 500 nM. The IC50 in assay [2] was at most 10 nM.

As to `COc1nc(Nc2ccc(C3CCN(C)CC3)c(C#N)c2)ncc1C(=O)Nc1c(Cl)ccc(O)c1C` [Compound 157, N-(6-chloro-3-hydroxy-2-methylphenyl)-2-((3-cyano-4-(1-methylpiperidin-4-yl)phenyl)amino)-4-methoxypyrimidine-5-carboxamide], the EC50 in assay [1] fell in the range of 100 to 500 nM. Moreover, the IC50 in assay [2] was 10 to 100 nM.

For `COc1nc(Nc2ccc(OCCN(C)C)c(C)c2)ncc1C(=O)Nc1c(Cl)ccc(O)c1C` [Compound 149, N-(6-chloro-3-hydroxy-2-methylphenyl)-2-((4-(2-(dimethylamino)ethoxy)-3-methylphenyl)amino)-4-methoxypyrimidine-5-carboxamide], the EC50 in assay [1] lay in the range of 100 to 500 nM. Moreover, the IC50 in assay [2] is at most 10 nM.

Take `COc1nc(Nc2ccc(OCCN3CCOCC3)c(C)c2)ncc1C(=O)Nc1c(Cl)cccc1Cl` [Compound 144, N-(2,6-dichlorophenyl)-4-methoxy-2-((3-methyl-4-(2-morpholinoethoxy)phenyl)amino)pyrimidine-5-carboxamide]: the 50% effective concentration (EC50) in assay [1] was over 1000 nM. The IC50 in assay [2] was at most 10 nM.

Turning to `C#Cc1cccc(Br)c1NC(=O)c1cnc(Nc2ccc(C3CCNCC3)c(C)c2)nc1OC` [Compound 184, N-(2-bromo-6-ethynylphenyl)-4-methoxy-2-((3-methyl-4-(piperidin-4-yl)phenyl)amino)pyrimidine-5-carboxamide], the EC50 in assay [1] is 100 to 500 nM. The IC50 in assay [2] is at most 10 nM.

For `COc1nc(Nc2ccc(C3CCN(C)CC3)c(C)c2)ncc1C(=O)Nc1cc(O)ccc1Cl` [Compound 138, N-(2-chloro-5-hydroxyphenyl)-4-methoxy-2-((3-methyl-4-(1-methylpiperidin-4-yl)phenyl)amino)pyrimidine-5-carboxamide], in assay [1], the EC50 was over 1000 nM. For the same molecule, the IC50 in assay [2] is at most 10 nM.

Consider `COc1nc(Nc2ccc(C3CCN(C)CC3)c(C)c2)ncc1C(=O)Nc1c(Br)cccc1C#N` [Compound 134, N-(2-bromo-6-cyanophenyl)-4-methoxy-2-((3-methyl-4-(1-methylpiperidin-4-yl)phenyl)amino)pyrimidine-5-carboxamide], for which the EC50 in assay [1] fell in the range of 100 to 500 nM. Moreover, in assay [2], the IC50 was at most 10 nM.

For `COc1nc(Nc2ccc(OCCCN3CCOCC3)c(C)c2)ncc1C(=O)Nc1c(Cl)ccc(O)c1C` [Compound 150, N-(6-chloro-3-hydroxy-2-methylphenyl)-4-methoxy-2-((3-methyl-4-(3-morpholinopropoxy)phenyl)amino)pyrimidine-5-carboxamide], the EC50 in assay [1] was over 1000 nM. The IC50 in assay [2] was at most 10 nM.

For `COc1nc(Nc2ccc(OCCCN(C)C)c(C)c2)ncc1C(=O)Nc1c(Cl)cccc1Cl` [Compound 147, N-(2,6-dichlorophenyl)-2-((4-(3-(dimethylamino)propoxy)-3-methylphenyl)amino)-4-methoxypyrimidine-5-carboxamide], in assay [1], the EC50 was over 1000 nM. The IC50 in assay [2] is at most 10 nM.

With `COc1nc(Nc2ccc(OC3CCN(C)CC3)c(C)c2)ncc1C(=O)Nc1c(Cl)cccc1Cl` [Compound 145, N-(2,6-dichlorophenyl)-4-methoxy-2-((3-methyl-4-((1-methylpiperidin-4-yl)oxy)phenyl)amino)pyrimidine-5-carboxamide], the EC50 in assay [1] was 100 to 500 nM. The IC50 in assay [2] was at most 10 nM.

Regarding `COc1nc(Nc2cnn([C@@H]3CCCNCC3)c2)ncc1C(=O)Nc1c(Cl)cccc1Cl` (single isomer, unassigned) [Compound 186], the EC50 in assay [1] is over 1000 nM. Also, the IC50 in assay [2] is at most 10 nM.

One may read the EC50 as the concentration that produces a half-maximal response. Broadly, the IC50 is the concentration that gives 50% inhibition.
